Experimental data: patent US7452683B2, “Caspase 9 activation and uses therefor” (Wyeth, priority 2002, dated 2008)
Structures can show the parent of a compound that is named as a salt.

Key:
[1] = target: T1, Caspase 3 (Homo sapiens, UniProt P42574); test: Caspase 3 cleavage of Ac-DEVD-Afc in ammonium sulfate at various concentrations; settings: 25 uM Ac-DEVD-Afc
T1 sequence (P42574 29-175 limits assumed): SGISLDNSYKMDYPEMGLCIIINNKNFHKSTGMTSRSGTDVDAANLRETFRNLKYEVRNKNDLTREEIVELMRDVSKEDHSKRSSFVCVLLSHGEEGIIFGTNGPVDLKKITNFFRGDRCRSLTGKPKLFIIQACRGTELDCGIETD
T1 sequence (P42574 176-277 limits assumed): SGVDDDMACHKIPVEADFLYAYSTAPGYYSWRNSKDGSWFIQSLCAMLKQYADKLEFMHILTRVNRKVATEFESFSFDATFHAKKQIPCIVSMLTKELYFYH
Procedure: (§1) The control buffer used to carry out specificity reactions is as follows: 20 mM PIPES pH 7.2, 1 mM EDTA, 0.1% CHAPS, 10% sucrose, 10 mM DTT. Various N-acetyl-tetrapeptide-7-amino-trifluoromethylcoumarin substrates at 100 uM were assayed with the different commercially available caspases. 2.5 mM stock substrate concentrations were prepared in DMSO and subsequently diluted to 200 uM with control buffer.
(§2) 300 U stock solutions of the enzymes in interest were prepared in the control buffer listed above. The assay was carried out as follows: 96 well black Dynex microfluorometer 1 plate was used. Total Assay volume was 100 ul. 7-amino-trifluoromethyl coumarin (AFC) was excited at 400 nm, and fluorescence emission was monitored at 505 nm kinetically for the duration of 1 hour (h) wherein AFC was cleaved from the peptide.
(§3) 50 ul of 200 uM stock substrate was added first (final assay concentration 100 uM). 40 ul of the control buffer was then added. The assay was initiated with the addition of 10 ul of the appropriate 300 U caspase stock (30 U in final assay). A linear rate (relative fluorescence U/s) was calculated from the entire duration of the experiment and graphed for each enzyme verses the various substrates tested.
(§4) The substrates in ammonium sulfate using Caspase 9 was 25 uM Ac-LEHD-Afc (SEQ ID NO: 5) and for Caspase 3 was 25 uM Ac-DEVD-Afc (SEQ ID NO: 1).

[2] = target: T2, Caspase 7 (Homo sapiens, UniProt P55210); test: Caspase 7 activity in ammonium sulfate at various concentrations
T2 sequence (P55210 24-198 limits assumed): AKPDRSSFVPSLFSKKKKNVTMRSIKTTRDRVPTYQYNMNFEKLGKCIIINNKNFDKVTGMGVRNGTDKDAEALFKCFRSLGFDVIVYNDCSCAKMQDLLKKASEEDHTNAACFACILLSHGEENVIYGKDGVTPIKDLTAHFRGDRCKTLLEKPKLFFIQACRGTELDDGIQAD
T2 sequence (P55210 207-303 limits assumed): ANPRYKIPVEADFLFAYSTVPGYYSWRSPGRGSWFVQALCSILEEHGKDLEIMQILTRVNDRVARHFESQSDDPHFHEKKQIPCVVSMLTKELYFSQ
Procedure: as §1, §2, §3, §4

[3] = target: T3, Caspase 1 (Homo sapiens, UniProt P29466); test: Caspase 1 activity in ammonium sulfate at various concentrations
T3 sequence (P29466 120-297 limits assumed): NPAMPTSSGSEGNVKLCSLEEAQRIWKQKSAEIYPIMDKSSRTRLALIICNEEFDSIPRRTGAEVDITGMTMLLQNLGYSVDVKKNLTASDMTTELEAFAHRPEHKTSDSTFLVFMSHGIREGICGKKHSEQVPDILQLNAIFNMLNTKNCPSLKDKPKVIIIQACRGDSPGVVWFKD
T3 sequence (P29466 317-404 limits assumed): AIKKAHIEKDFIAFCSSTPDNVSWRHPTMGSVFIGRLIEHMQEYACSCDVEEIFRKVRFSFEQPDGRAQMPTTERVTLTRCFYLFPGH
Procedure: as §1, §2, §3, §4

[4] = target: T4, Caspase 9 (Homo sapiens, UniProt P55211); test: Caspase 9 cleavage of Ac-LEHD-AFC in buffers containing Hofmeister salts; type: biochemical
T4 construct: purchased
T4 sequence (P55211 1-315 limits assumed): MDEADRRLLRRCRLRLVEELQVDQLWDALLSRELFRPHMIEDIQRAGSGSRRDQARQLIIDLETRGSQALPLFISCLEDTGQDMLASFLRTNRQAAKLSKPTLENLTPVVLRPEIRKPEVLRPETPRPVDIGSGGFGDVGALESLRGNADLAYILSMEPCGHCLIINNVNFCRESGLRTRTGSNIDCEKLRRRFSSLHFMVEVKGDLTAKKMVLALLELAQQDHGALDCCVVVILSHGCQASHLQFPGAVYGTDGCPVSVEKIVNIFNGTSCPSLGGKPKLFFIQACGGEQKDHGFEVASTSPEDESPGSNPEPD
T4 sequence (P55211 331-416 limits assumed): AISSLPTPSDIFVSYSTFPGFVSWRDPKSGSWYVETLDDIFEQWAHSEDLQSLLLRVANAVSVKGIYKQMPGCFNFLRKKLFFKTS

[5] = target: Herpes simplex virus 1 protease (Human herpesvirus 1, UniProt P10210); settings: 1M Na citrate; cited from earlier work
Chain of Herpes simplex virus 1 protease (P10210 1-247): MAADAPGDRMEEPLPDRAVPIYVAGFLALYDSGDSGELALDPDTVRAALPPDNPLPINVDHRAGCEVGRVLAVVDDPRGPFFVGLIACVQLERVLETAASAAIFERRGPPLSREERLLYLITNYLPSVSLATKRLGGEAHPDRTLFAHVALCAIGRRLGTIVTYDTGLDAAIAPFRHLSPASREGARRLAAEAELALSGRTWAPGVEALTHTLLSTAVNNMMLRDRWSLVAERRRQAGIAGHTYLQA

## N.N.O=S(=O)(O)O [ammonium sulfate]
[1]
  effect of salt on Caspase 3 activity: minimal effect
[2]
  effect of salt on Caspase 7 activity: no effect
[3]
  effect of salt on Caspase 1 activity: no effect
[4]; sulfate concentrations from 0 to 1.6 M, 25 uM Ac-LEHD-Afc
  Caspase 9 activity increase: 1400 fold

## O=C(O)CC(O)(CC(=O)O)C(=O)O [citrate, Na citrate]
[5]
  increase in activity of Herpes simplex virus 1 protease: 860 fold
[4]; 0.8 M salt in control buffer pH 7.2, 100 uM N-Ac-LEHD-Afc, 30 U Caspase 9/well (0.72 uM)
  activity of Caspase 9 relative to activity in 0.8 M bromide: 10,000 fold

## O=P(O)(O)O [sodium phosphate]
[4]; phosphate concentrations from 0 to 1 M, 100 uM Ac-LEHD-Afc
  Caspase 9 activity increase: 2200 fold
